Values joined by “and” are separate entries in the source; they are usually repeats but may differ in a detail not shown here. Identical values can stand only once. “Also recorded” adds a separate entry of the source. Like-named read-outs stand apart in the source and are kept apart here. Marks after values point to notes of the source that are not given here.
Assays:
human A3AR [1] = target: T1, human A3AR (Homo sapiens, UniProt P0DMS8); experiment: Inhibition of forskolin-stimulated cAMP production; settings: for agonist character at hA3AR in the adenylate cyclase (cAMP) assay: relative to full agonist 51
T1 sequence (P0DMS8 1-318): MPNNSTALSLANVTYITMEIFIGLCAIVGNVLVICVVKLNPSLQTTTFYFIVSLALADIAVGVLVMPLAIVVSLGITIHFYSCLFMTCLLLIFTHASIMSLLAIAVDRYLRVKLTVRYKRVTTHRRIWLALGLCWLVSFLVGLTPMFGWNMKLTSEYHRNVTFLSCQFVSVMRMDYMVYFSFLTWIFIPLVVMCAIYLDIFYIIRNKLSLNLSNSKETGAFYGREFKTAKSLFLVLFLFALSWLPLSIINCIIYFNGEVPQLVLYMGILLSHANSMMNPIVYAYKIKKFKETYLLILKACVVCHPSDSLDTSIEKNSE

A3AR = settings: at 10 μM, percentage of full effect induced by 10 μM 51; cited from earlier work
[2] = target: T2, human A2A adenosine receptor (hA2AAR) (Homo sapiens, UniProt P29274); experiment: Radioligand binding at human A2AAR, membranes of HEK293 cells
[3] = target: T3, human A1 adenosine receptor (hA1AR) (Homo sapiens, UniProt P30542); experiment: Radioligand binding at human A1AR, membranes of CHO cells
T3 sequence (P30542 1-326): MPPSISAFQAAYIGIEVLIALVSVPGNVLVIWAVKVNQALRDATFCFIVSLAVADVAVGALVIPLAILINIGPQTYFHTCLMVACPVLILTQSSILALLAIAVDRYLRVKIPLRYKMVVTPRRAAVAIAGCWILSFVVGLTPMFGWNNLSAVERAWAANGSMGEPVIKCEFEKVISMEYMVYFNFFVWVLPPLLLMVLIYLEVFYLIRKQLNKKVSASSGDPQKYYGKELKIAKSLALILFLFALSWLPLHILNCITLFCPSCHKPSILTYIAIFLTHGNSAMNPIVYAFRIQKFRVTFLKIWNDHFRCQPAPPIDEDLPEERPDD

rA3AR = target: T4, rA3AR (Rattus norvegicus, UniProt P28647); experiment: Radioligand binding at rat A3AR
T4 sequence (P28647 1-320): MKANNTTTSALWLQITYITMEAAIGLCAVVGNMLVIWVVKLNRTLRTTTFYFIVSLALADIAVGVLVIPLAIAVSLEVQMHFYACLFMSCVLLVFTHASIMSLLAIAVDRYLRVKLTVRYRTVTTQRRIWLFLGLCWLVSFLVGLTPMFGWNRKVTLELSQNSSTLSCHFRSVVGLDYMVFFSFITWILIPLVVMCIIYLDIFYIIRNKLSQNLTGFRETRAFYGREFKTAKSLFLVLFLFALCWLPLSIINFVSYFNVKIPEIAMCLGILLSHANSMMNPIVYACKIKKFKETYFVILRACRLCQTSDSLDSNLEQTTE

human A3AR [4] = target: T1, human A3AR; settings: at 10 μM, relative to 51 (= 100%); cited from earlier work
[5] = target: T2, human A2A adenosine receptor (hA2AAR); settings: cited from earlier work; for % inhibition of radioligand binding A2A: at 10 μM
[6] = target: T5, human A3 adenosine receptor (hA3AR) (Homo sapiens, UniProt P0DMS8); experiment: Radioligand binding at human A3AR, membranes of CHO cells
T5 sequence (P0DMS8 1-318): T1 sequence (P0DMS8 1-318)

T2 sequence (P29274 whole entry): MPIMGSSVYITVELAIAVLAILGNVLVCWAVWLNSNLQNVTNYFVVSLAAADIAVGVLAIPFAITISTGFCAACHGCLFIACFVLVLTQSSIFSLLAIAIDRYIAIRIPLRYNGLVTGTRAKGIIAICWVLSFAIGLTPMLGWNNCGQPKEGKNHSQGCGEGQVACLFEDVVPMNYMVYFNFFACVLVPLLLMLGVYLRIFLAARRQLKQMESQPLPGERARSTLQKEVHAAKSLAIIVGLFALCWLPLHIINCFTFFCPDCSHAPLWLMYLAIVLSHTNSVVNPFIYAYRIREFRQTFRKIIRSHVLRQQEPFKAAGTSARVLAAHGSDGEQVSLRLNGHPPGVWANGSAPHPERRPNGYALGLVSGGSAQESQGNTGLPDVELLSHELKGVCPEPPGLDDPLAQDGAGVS

For `O[C@@H]1[C@H](O)[C@@H]2C[C@@H]2[C@H]1n1cnc2c(NCc3cccc(I)c3)nc(Cl)nc21` [Compound 2c, reference compound], the “agonist character at hA3AR in the adenylate cyclase (cAMP) assay” value (shortened to “agonist character at hA3AR”) (human A3AR [1]) is listed as “partial agonists” and the “% efficacy, A3 (stimulation of [35S]GTPγS binding)” value (A3AR) is listed as 1.0 ± 3.2%.

For `O[C@@H]1[C@H](O)[C@@H]2C[C@@H]2[C@H]1n1cnc2c(NCc3cccc(Br)c3)nc(Cl)nc21` [Compound 2b, (1R,2R,3S,4R,5S)-4-(6-(3-bromobenzylamino)-2-chloro-9H-purin-9-yl)bicyclo-[3.1.0]hexane-2,3-diol, reference compound], the “agonist character at hA3AR” value (human A3AR [1]) was “partial agonists”.

In the case of `CCN1C(=CC=CC=CC2=[N+](CCCCCC(=O)NCCNC(=O)CCC#Cc3nc(NCc4cccc(Cl)c4)c4ncn(C5C(O)C(O)C6(C(=O)NC)CC56)c4n3)c3ccc(S(=O)(=O)O)cc3C2(C)C)C(C)(C)c2cc(S(=O)(=O)[O-])ccc21` (stereo not drawn) [Compound 18, (1′S,2′R,3′S,4′S,5′S)-4′-[6-(3-Chlorobenzylamino)-2-(N-cyaiune(β-aminoethylaminocarbonyl)-1-butynyl)-9-yl]-2′,3′-dihydroxybicyclo[3.1.0]hexane-1′-carboxylic Acid N-Methylamide], the Ki [2] is reported as 4730 ± 1020 nM, the “agonist character at hA3AR” value (human A3AR [1]) is reported as “full agonist” and the inhibition at 10 µM ([3]; read-out: % inhibition of radioligand binding A1) is reported as 36%. For the same compound, the Ki (rA3AR) was 9.62 nM and 9.6 nM.

Work on `CNC(=O)[C@]12C[C@@H]1[C@@H](n1cnc3c(NCc4cccc(Cl)c4)nc(C#CCCC(=O)NCCNC(=O)CCCC[C@H]4SC[C@H]5NC(=O)N[C@H]54)nc31)[C@H](O)[C@@H]2O` [Compound 17a, (1′S,2′R,3′S,4′S,5′S)-4′-[6-(3-Chiorobenzylamino)-2-(N-biotinyl(β-aminoethylaminocarbonyl)-1-butynyl)-9-yl]-2′, 3′-dihydroxybicyclo[3.1.0]hexane-1′-carboxylic Acid N-Methylamide] yielded an EC50 (human A3AR [1]) of 2.5 ± 0.42 nM.

For `O[C@@H]1[C@H](O)[C@@H]2C[C@@H]2[C@H]1n1cnc2c(NCc3cccc(Cl)c3)nc(Cl)nc21` [Compound 2a], the “% efficacy, A3 (stimulation of [35S]GTPγS binding)” value (A3AR) is given as 2.9 ± 3.7 ^f %.

For `CNC(=O)[C@@]12C[C@@H]1[C@@H](n1cnc3c(NCc4cccc(I)c4)nc(Cl)nc31)[C@H](O)[C@@H]2O` [Compound 1b, reference compound], the “% efficacy, A3 (inhibition of forskolin-stimulated cAMP production)” value (human A3AR [4]) is listed as 100 ^c % and the Ki ([5]; read-out: affinity (Ki) A2A, HEK293 cells expressing hA2AAR) is listed as 784 ± 97 nM.

For `CNC(=O)[C@@]12C[C@@H]1[C@@H](n1cnc3c(NCc4cccc(Cl)c4)nc(C#CCCCC(=O)O)nc31)[C@H](O)[C@@H]2O` [Compound 6], the “% inhibition of radioligand binding A2A” value [5] is given as “(43%)”.

With `O[C@@H]1[C@H](O)[C@@H]2C[C@@H]2[C@H]1n1cnc2c(NCc3cccc(I)c3)ncnc21` [Compound 23, (1′R,2′R,3′S,4′ S,5′ S)-4′-[6-(3-Iodobenzylamino)purine]-2′,3′-dihydroxybicyclo[3.1.0]hexane] the Ki [2] was 2330 ± 680 nM, the Ki [6] was 11 ± 2.2 nM and the “agonist character at hA3AR” value (human A3AR [1]) was “nearly full agonism”.

For `CNC(=O)[C@]12C[C@@H]1[C@@H](n1cnc3c(NCc4cccc(Cl)c4)nc(C#CCCCC(=O)OC)nc31)[C@H](O)[C@@H]2O` [Compound 9], the “% inhibition of radioligand binding A2A” value [5] is given as “(49%)”.

In the case of `O[C@@H]1[C@H](O)[C@@H]2C[C@@H]2[C@H]1n1cnc2c(NCc3cccc(Cl)c3)ncnc21` [Compound 22], the “agonist character at hA3AR” value (human A3AR [1]) is reported as “partial”.

For `CNC(=O)[C@]12C[C@@H]1[C@@H](n1cnc3c(NCc4cccc(Cl)c4)nc(C#CCCCC(=O)NCCN)nc31)[C@H](O)[C@@H]2O` [Compound 12], the “% inhibition of radioligand binding A2A” value [5] is given as “(81%)”.

For `O[C@@H]1[C@H](O)[C@@H]2C[C@@H]2[C@H]1n1cnc2c(NC3CCCC3)nc(Cl)nc21` [Compound 25], the “fold reduction of affinity at A3AR on loss of the 5′-N-methyluronamide group” value ([6]; 25 versus 4) was 32 fold, the “agonist character at hA3AR” value (human A3AR [1]) was “nearly full agonism; also recorded: full agonist” and the “fold reduction of affinity at A1AR on loss of the 5′-N-methyluronamide group” value ([3]; 25 versus 4) was 6 fold.

— article PMC3109436 (Journal of medicinal chemistry, 2009)
